The text below walks through data of ChEMBL document CHEMBL1142747, “Prostatic acid phosphatase in cloacal derivatives” (Bioorg Med Chem Lett, 2005).

Where only a bound is given, the exact number is not on record here.

Series [1] is described as follows: Half life of ECA-ATL in buffer at pH 7.4. In kind it is ADME.
A short description of series [2]: Half life of ECA-ATL in serum. In kind it is ADME, cell-free. The settings on record: human.

As to `C=C(CC)C(=O)c1ccc(OCC(=O)OCCOCCOCCOCCO)c(Cl)c1Cl`, the half-life in series [1] was 130 h; in series [2], less than 0.0333 h.
`C=C(CC)C(=O)c1ccc(OCC(=O)OCCOCCOCCOCCOCCOCCO)c(Cl)c1Cl`: the results for the half-life in series [1] and in series [2] were 120 h and less than 0.0333 h, respectively.
Take `C=C(CC)C(=O)c1ccc(OCC(=O)OC(CNC(C)C)COc2ccc(CC(N)=O)cc2)c(Cl)c1Cl` (stereo not drawn): the half-life is 14 h in series [1] and 0.5 h in series [2].
As to `C=C(CC)C(=O)c1ccc(OCC(=O)OCCOCCO)c(Cl)c1Cl`, the half-life was 110 h in series [1] and less than 0.0333 h in series [2].
